Source: US10588317B2, “Isoxazoline-substituted benzamides and analogues as insecticides” (priority 2015, dated 2020)

How the values were obtained:
Assay type in all cases: in vivo
Diabrotica balteata = Diabrotica balteata (corn root worm), sprayed maize sprouts; conditions: 96 h, application rate 200 ppm, L2 larvae, 4 days after infestation, read-out: effect in at least one of the two categories (mortality or growth inhibition)
Procedure, shortened: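 Maize sprouts on agar sprayed with aqueous dilutions of DMSO stocks, dried, then infested with L2 larvae (6–10 per well). Mortality and growth inhibition scored against untreated controls 4 days after infestation, at 200 ppm application rate.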

Euschistus heros = Euschistus heros (neotropical brown stink bug), sprayed soybean leaves; conditions: 120 h, application rate 200 ppm, N2 nymphs, 5 days after infestation, read-out: effect in at least one of the two categories (mortality or growth inhibition)
Procedure, shortened: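 Soybean leaves on agar sprayed with aqueous dilutions of DMSO stocks, dried, then infested with N2 nymphs. Mortality and growth inhibition scored against untreated samples 5 days after infestation; application rate 200 ppm.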

Myzus persicae = Myzus persicae (green peach aphid): feeding/contact activity; conditions: 144 h, application rate 200 ppm, aphid population of mixed ages, 6 days after infestation, read-out: mortality
Protocol: (§1) Sunflower leaf discs were placed onto agar in a 24-well microtiter plate and sprayed with aqueous test solutions prepared from 10'000 ppm DMSO stock solutions. After drying, the leaf discs were infested with an aphid population of mixed ages. The samples were assessed for mortality 6 days after infestation.

Plutella xylostella = Plutella xylostella (diamond back moth), artificial diet; conditions: 120 h, application rate 200 ppm, L2 larvae, 5 days after infestation, read-out: effect in at least one of the two categories (mortality or growth inhibition)
Procedure, shortened: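 Artificial diet in 24-well plates treated with aqueous test solutions made from 10'000 ppm DMSO stocks, dried, then infested with L2 larvae (10 to 15 per well). Mortality and growth inhibition scored against untreated samples 5 days after infestation; activity cut-off at least 80% in either category at 200 ppm.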

Spodoptera littoralis = Spodoptera littoralis (Egyptian cotton leaf worm), sprayed cotton leaf discs; conditions: foliar, 72 h, application rate 200 ppm, L1 larvae, 3 days after infestation, read-out: control (mortality, anti-feeding effect, growth inhibition)
Procedure, shortened: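 Cotton leaf discs on agar sprayed with aqueous test solutions made from 10'000 ppm DMSO stock; after drying, infested with five L1 larvae. Mortality, anti-feeding and growth inhibition scored versus untreated samples 3 days after infestation; control counted when any category exceeds untreated.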

Tetranychus urticae = Tetranychus urticae (two-spotted spider mite): feeding/contact activity; conditions: 192 h, application rate 200 ppm, mixed population (mobile stages), 8 days after infestation, read-out: mortality
Protocol: Bean leaf discs on agar in 24-well microtiter plates were sprayed with aqueous test solutions prepared from 10'000 ppm DMSO stock solutions. After drying the leaf discs were infested with a mite population of mixed ages. The samples were assessed for mortality on mixed population (mobile stages) 8 days after infestation.

Thrips tabaci = Thrips tabaci (onion thrips): feeding/contact activity; conditions: 144 h, application rate 200 ppm, Thrips population of mixed ages, 6 days after infestation, read-out: mortality
Protocol: as §1, with “on” for “onto”, “in” for “in a”, “plates” for “plate”, “drying” for “drying,”, “a Thrips” for “an aphid”

Cc1cc(C2=NO[C@@](c3cc(Cl)c(F)c(Cl)c3)(C(F)(F)F)C2)ccc1C(=O)N[C@H]1CON(S(=O)(=O)NCC(F)(F)F)C1 [Compound A149, 4-[(5S)-5-(3,5-dichloro-4-fluoro-phenyl)-5-(trifluoromethyl)-4H-isoxazol-3-yl]-2-methyl-N-[(4R)-2-(2,2,2-trifluoroethylsulfamoyl)isoxazolidin-4-yl]benzamide]
≥ 80%: percent effect (mortality or growth inhibition) at 200 ppm (Diabrotica balteata) | percent effect (mortality or growth inhibition) at 200 ppm (Euschistus heros) | mortality at 200 ppm (Myzus persicae) | percent effect (mortality or growth inhibition) at 200 ppm (Plutella xylostella) | mortality at 200 ppm (Spodoptera littoralis) | mortality at 200 ppm (Tetranychus urticae) | mortality at 200 ppm (Thrips tabaci)

Cc1cc(C2=NO[C@@](c3cc(Cl)c(F)c(Cl)c3)(C(F)(F)F)C2)ccc1C(=O)N[C@H]1CON(S(=O)(=O)N(C)CC(F)(F)F)C1 [Compound A150, 4-[(5S)-5-(3,5-dichloro-4-fluoro-phenyl)-5-(trifluoromethyl)-4H-isoxazol-3-yl]-2-methyl-N-[(4R)-2-[methyl(2,2,2-trifluoroethyl)sulfamoyl]isoxazolidin-4-yl]benzamide]
≥ 80%: percent effect (mortality or growth inhibition) at 200 ppm (Diabrotica balteata) | percent effect (mortality or growth inhibition) at 200 ppm (Euschistus heros) | mortality at 200 ppm (Myzus persicae) | percent effect (mortality or growth inhibition) at 200 ppm (Plutella xylostella) | mortality at 200 ppm (Spodoptera littoralis) | mortality at 200 ppm (Tetranychus urticae) | mortality at 200 ppm (Thrips tabaci)

CC(C)(C)OC(=O)NS(=O)(=O)N1C[C@@H](NC(=O)c2ccc(C3=NO[C@@](c4cc(Cl)cc(Cl)c4)(C(F)(F)F)C3)cc2Cl)CO1 [Compound A151, tert-butyl N-[(4R)-4-[[2-chloro-4-[(5S)-5-(3,5-dichlorophenyl)-5-(trifluoromethyl)-4H-isoxazol-3-yl]benzoyl]amino]isoxazolidin-2-yl]sulfonylcarbamate]
≥ 80%: percent effect (mortality or growth inhibition) at 200 ppm (Diabrotica balteata) | percent effect (mortality or growth inhibition) at 200 ppm (Euschistus heros) | mortality at 200 ppm (Myzus persicae) | percent effect (mortality or growth inhibition) at 200 ppm (Plutella xylostella) | mortality at 200 ppm (Spodoptera littoralis) | mortality at 200 ppm (Tetranychus urticae) | mortality at 200 ppm (Thrips tabaci)

C#CCN(C(=O)OC(C)(C)C)S(=O)(=O)N1C[C@@H](NC(=O)c2ccc(C3=NO[C@@](c4cc(Cl)cc(Cl)c4)(C(F)(F)F)C3)cc2Cl)CO1 [Compound A152]
≥ 80%: percent effect (mortality or growth inhibition) at 200 ppm (Diabrotica balteata) | percent effect (mortality or growth inhibition) at 200 ppm (Euschistus heros) | mortality at 200 ppm (Myzus persicae) | percent effect (mortality or growth inhibition) at 200 ppm (Plutella xylostella) | mortality at 200 ppm (Spodoptera littoralis) | mortality at 200 ppm (Tetranychus urticae) | mortality at 200 ppm (Thrips tabaci)

CN(C1CC1)S(=O)(=O)N1C[C@@H](NC(=O)c2ccc(C3=NO[C@@](c4cc(Cl)cc(Cl)c4)(C(F)(F)F)C3)cc2Cl)CO1 [Compound A153]
≥ 80%: percent effect (mortality or growth inhibition) at 200 ppm (Diabrotica balteata) | percent effect (mortality or growth inhibition) at 200 ppm (Euschistus heros) | mortality at 200 ppm (Myzus persicae) | percent effect (mortality or growth inhibition) at 200 ppm (Plutella xylostella) | mortality at 200 ppm (Spodoptera littoralis) | mortality at 200 ppm (Tetranychus urticae) | mortality at 200 ppm (Thrips tabaci)

O=C(N[C@H]1CON(S(=O)(=O)NC2CC2)C1)c1ccc(C2=NO[C@@](c3cc(Cl)cc(Cl)c3)(C(F)(F)F)C2)cc1Cl [Compound A154]
≥ 80%: percent effect (mortality or growth inhibition) at 200 ppm (Diabrotica balteata) | percent effect (mortality or growth inhibition) at 200 ppm (Euschistus heros) | mortality at 200 ppm (Myzus persicae) | percent effect (mortality or growth inhibition) at 200 ppm (Plutella xylostella) | mortality at 200 ppm (Spodoptera littoralis) | mortality at 200 ppm (Tetranychus urticae) | mortality at 200 ppm (Thrips tabaci)

Cc1cc(C2=NO[C@@](c3cc(Cl)cc(Cl)c3)(C(F)(F)F)C2)ccc1C(=O)N[C@H]1CON(S(=O)(=O)N(C)C2CC2)C1 [Compound A156]
≥ 80%: percent effect (mortality or growth inhibition) at 200 ppm (Diabrotica balteata) | percent effect (mortality or growth inhibition) at 200 ppm (Euschistus heros) | mortality at 200 ppm (Myzus persicae) | percent effect (mortality or growth inhibition) at 200 ppm (Plutella xylostella) | mortality at 200 ppm (Spodoptera littoralis) | mortality at 200 ppm (Tetranychus urticae) | mortality at 200 ppm (Thrips tabaci)

CCN(C1CC1)S(=O)(=O)N1C[C@@H](NC(=O)c2ccc(C3=NO[C@@](c4cc(Cl)cc(Cl)c4)(C(F)(F)F)C3)cc2Cl)CO1 [Compound A157]
≥ 80%: percent effect (mortality or growth inhibition) at 200 ppm (Diabrotica balteata) | percent effect (mortality or growth inhibition) at 200 ppm (Euschistus heros) | mortality at 200 ppm (Myzus persicae) | percent effect (mortality or growth inhibition) at 200 ppm (Plutella xylostella) | mortality at 200 ppm (Spodoptera littoralis) | mortality at 200 ppm (Tetranychus urticae) | mortality at 200 ppm (Thrips tabaci)

C#CCN(CC)S(=O)(=O)N1C[C@@H](NC(=O)c2ccc(C3=NO[C@@](c4cc(Cl)cc(Cl)c4)(C(F)(F)F)C3)cc2Cl)CO1 [Compound A161, 2-chloro-4-[(5S)-5-(3,5-dichlorophenyl)-5-(trifluoromethyl)-4H-isoxazol-3-yl]-N-[(4R)-2-[ethyl(prop-2-ynyl)sulfamoyl]isoxazolidin-4-yl]benzamide]
≥ 80%: percent effect (mortality or growth inhibition) at 200 ppm (Diabrotica balteata) | percent effect (mortality or growth inhibition) at 200 ppm (Euschistus heros) | mortality at 200 ppm (Myzus persicae) | percent effect (mortality or growth inhibition) at 200 ppm (Plutella xylostella) | mortality at 200 ppm (Spodoptera littoralis) | mortality at 200 ppm (Tetranychus urticae) | mortality at 200 ppm (Thrips tabaci)

CC(=O)N(C)S(=O)(=O)N1CC(NC(=O)c2ccc(C3=NO[C@@](c4cc(Cl)c(F)c(Cl)c4)(C(F)(F)F)C3)cc2C)CO1 (stereo partly drawn) [Compound A162]
≥ 80%: percent effect (mortality or growth inhibition) at 200 ppm (Diabrotica balteata) | percent effect (mortality or growth inhibition) at 200 ppm (Euschistus heros) | mortality at 200 ppm (Myzus persicae) | percent effect (mortality or growth inhibition) at 200 ppm (Plutella xylostella) | mortality at 200 ppm (Spodoptera littoralis) | mortality at 200 ppm (Tetranychus urticae) | mortality at 200 ppm (Thrips tabaci)

Cc1cc(C2=NO[C@](c3cc(Cl)c(F)c(Cl)c3)(C(F)(F)F)C2)ccc1C(=O)N[C@H]1CON(S(=O)(=O)CCl)C1 [Compound A164, N-[(4R)-2-(chloromethylsulfonyl)-1,2-oxazolidin-4-yl]-4-[(5R)-5-(3,5-dichloro-4-fluorophenyl)-5-(trifluoromethyl)-4H-1,2-oxazol-3-yl]-2-methylbenzamide]
≥ 80%: percent effect (mortality or growth inhibition) at 200 ppm (Diabrotica balteata) | percent effect (mortality or growth inhibition) at 200 ppm (Euschistus heros) | mortality at 200 ppm (Myzus persicae) | percent effect (mortality or growth inhibition) at 200 ppm (Plutella xylostella) | mortality at 200 ppm (Spodoptera littoralis) | mortality at 200 ppm (Tetranychus urticae) | mortality at 200 ppm (Thrips tabaci)

Cc1cc(C2=NO[C@](c3cc(Cl)cc(Cl)c3)(C(F)(F)F)C2)ccc1C(=O)N[C@H]1CON(S(=O)(=O)CCl)C1 [Compound A166, N-[(4R)-2-(chloromethylsulfonyl)-1,2-oxazolidin-4-yl]-4-[(5R)-5-(3,5-dichlorophenyl)-5-(trifluoromethyl)-4H-1,2-oxazol-3-yl]-2-methylbenzamide]
≥ 80%: percent effect (mortality or growth inhibition) at 200 ppm (Diabrotica balteata) | percent effect (mortality or growth inhibition) at 200 ppm (Euschistus heros) | mortality at 200 ppm (Myzus persicae) | percent effect (mortality or growth inhibition) at 200 ppm (Plutella xylostella) | mortality at 200 ppm (Spodoptera littoralis) | mortality at 200 ppm (Tetranychus urticae) | mortality at 200 ppm (Thrips tabaci)

Cc1cc(C2=NO[C@](c3cc(Cl)c(F)c(Cl)c3)(C(F)(F)F)C2)ccc1C(=O)N[C@H]1CON(S(=O)(=O)NC2(C#N)CC2)C1 [Compound A168]
≥ 80%: percent effect (mortality or growth inhibition) at 200 ppm (Diabrotica balteata) | percent effect (mortality or growth inhibition) at 200 ppm (Euschistus heros) | mortality at 200 ppm (Myzus persicae) | percent effect (mortality or growth inhibition) at 200 ppm (Plutella xylostella) | mortality at 200 ppm (Spodoptera littoralis) | mortality at 200 ppm (Tetranychus urticae) | mortality at 200 ppm (Thrips tabaci)

Cc1cc(C2=NO[C@@](c3cc(F)cc(C(F)(F)F)c3)(C(F)(F)F)C2)ccc1C(=O)N[C@@H]1CON(S(=O)(=O)N(C)C)C1 [Compound A169]
≥ 80%: percent effect (mortality or growth inhibition) at 200 ppm (Diabrotica balteata) | percent effect (mortality or growth inhibition) at 200 ppm (Euschistus heros) | mortality at 200 ppm (Myzus persicae) | percent effect (mortality or growth inhibition) at 200 ppm (Plutella xylostella) | mortality at 200 ppm (Spodoptera littoralis) | mortality at 200 ppm (Tetranychus urticae) | mortality at 200 ppm (Thrips tabaci)

Cc1cc(C2=NO[C@@](c3cc(F)cc(C(F)(F)F)c3)(C(F)(F)F)C2)ccc1C(=O)N[C@@H]1CON(S(C)(=O)=O)C1 [Compound A172]
≥ 80%: percent effect (mortality or growth inhibition) at 200 ppm (Diabrotica balteata) | percent effect (mortality or growth inhibition) at 200 ppm (Euschistus heros) | mortality at 200 ppm (Myzus persicae) | percent effect (mortality or growth inhibition) at 200 ppm (Plutella xylostella) | mortality at 200 ppm (Spodoptera littoralis) | mortality at 200 ppm (Tetranychus urticae) | mortality at 200 ppm (Thrips tabaci)
